Data published in patent publication US20250049823A1, “MITOCHONDRIAL ATP INHIBITORS TARGETING THE GAMMA SUBUNIT PREVENT METASTASIS” (LUNELLA BIOTECH, INC., priority 2021, published 2025).

How the values were obtained:
[1] = test system: p21; assay: Western blot analysis of p21 protein expression; details: 0.1, 1 and 10 μM, 120 hours
[2] = test system: MDA-MB-231 cells; assay: Cell migration assay (Transwells); assay type: cell-based; details: Homo sapiens, 32 hours then 16 hours in Transwells
Experimental: MDA-MB-231 cells were cultured in presence of Bedaquiline (10 μM) for 32 hours and moved to the Transwells for 16 hours in presence of Bedaquiline (10 μM). Unpaired t-test, **p<0.005.
Cell Migration Assays: Briefly, 3.5×10^4 cells in 0.5 ml of serum-free DMEM with 0.1% BSA were added to the wells of 8-μm pore, non-coated membrane modified Boyden chambers (Transwells). The lower chambers contained 10% fetal bovine serum in DMEM to serve as a chemo-attractant. Cells were incubated at 37° C. and allowed to migrate throughout the course of 16 hours. Noninvasive cells were removed from the upper surface of the membrane by scrubbing with cotton swabs. Chambers were stained in 0.5% crystal violet diluted in 100% methanol for 30-60 min, rinsed in water and examined under a bright-field microscope. Values for invasion and migration were obtained by counting five fields per membrane (20× objective) and represent the average of three independent experiments.

[3] = test system: MDA-MB-231 cells; assay: ATP assay using BioTracker ATP-Red 1 (mitochondrial ATP levels); assay type: cell-based; details: Homo sapiens, 120 hours of treatment, read-out: Maximal inhibition of mitochondrial ATP production
Experimental: FIG. 7 compares the fold-change of BioTracker ATP-Red (signal mean) between the control and MDA-MB-231 cells treated with Bedaquiline. […] The data in FIG. 7 based on two-way ANOVA, Sidak's multiple comparisons test, *p<0.05, **p<0.005, ***p<0.0005, ****p<0.0001.
ATP assay using BioTracker ATP-Red 1: Cells were stained with BioTracker ATP-Red 1 after various treatments. After 30 minutes of incubation, the cells were washed twice with DPBS, collected and dissociated into a single-cell suspension with a 40 μm cell strainer. The cells were analyzed using the Attune NxT Flow Cytometer. Means of the signal (at 570 nm) were compared.

[4] = test system: MDA-MB-231 cells; assay: 3D anchorage-independent growth (mammosphere formation) assay; assay type: cell-based, human; details: for Mammosphere formation inhibition compared to Bedaquiline (FIG. 12): 0.5 μM to 10 μM, all concentrations tested; for Mammosphere formation inhibition at the higher concentrations (FIG. 12): higher concentrations of 0.5 μM to 10 μM range
Experimental: One-way ANOVA, Dunnett's multiple comparisons test, **p<0.005, ***p<0.0005.
3D Anchorage Independent Growth Assay: This assay is also referred to as the mammosphere formation assay. A single-cell suspension was prepared using enzymatic, and manual disaggregation (25-g needle). Then, cells were plated at a density of 500 cells/cm^2 in mammosphere medium (DMEM-F12+1× B-27 Plus Supplement+20 ng/ml EGF+Pen/Strep) under non-adherent conditions, in culture dishes pre-coated with (2-hydroxyethylmethacrylate) (poly-HEMA, Sigma Aldrich Inc.), called “mammosphere plates.” Cells were grown for 5 days and maintained in a humidified incubator at 37° C. After 5 days of culture, 3D-mammospheres >50 μm were counted using an eye piece (“graticule”), and the percentage of cells plated which formed spheres was calculated and is referred to as percent mammosphere formation, and was normalized to one (1=100% MFE). 3D mammosphere formation efficiency (MFE) was analyzed in both the ATP-low and ATP-high sub-populations of cells. All 3D mammosphere experiments were performed in triplicate, at least 3 times independently.

[5] = test system: MCF10A cells; assay: 2D monolayer growth, non-tumorigenic control cells; assay type: cell-based; details: 10 μM, normal control human mammary epithelial cell line
Experimental: (§1) FIGS. 8A and 8B show monolayer growth of MDA-MB-231 and MCF10A cells, respectively, treated with 10 μM Bedaquiline over time. […] Unpaired t-test *p<0.05, **p<0.005.
(§2) Reagents and Model Cell Lines: It should be apparent that other cell lines may be used without departing from the present approach. BioTracker ATP-Red 1 (#SCT045) was obtained commercially from Merck-Millipore, Inc. The triple-negative human breast cancer cell line, MDA-MB-231, was obtained from the American Type Culture Collection (ATCC). MCF10A cells, a non-tumorigenic human breast epithelial cell line, were also obtained from ATCC. MDA-MB-231 cells were cultured in DMEM (High Glucose) supplemented with 10% Fetal Bovine Serum (FBS, Sigma Aldrich), 2 mM Glutamax (Gibco, Life Technologies, Waltham, MA, USA), and 1% penicillin/streptomycin (Gibco, Life Technologies). The MCF10A cell line was maintained in a mammary epithelial cell growth medium (MEGM; Lonza, Basel, Switzerland) supplemented with 0.4% Bovine pituitary extract (BPE), 0.1% insulin, 0.1% hEGF, 0.1% Hydrocortisone, 0.1% GA-1000, and 100 ng/ml of cholera toxin. All cell lines were cultured at 37° C. in 5% CO2 in a humidified atmosphere.

[6] = test system: MDA-MB-231 cells; assay: Cell cycle analysis by FACS; assay type: cell-based, human
Experimental: There is a 2-fold reduction of MDA-MB-231 cells in S-phase and a concomitant 2-fold increase in the sub-G0-G1 population, after 120 hours of treatment. Two-way ANOVA, Sidak's multiple comparisons test, ns=not significant, ***p<0.0005. FIGS. 9C and 9D show representative FACS tracings for the control and for cells treated with Bedaquiline, respectively.
FIGS. 10A-10C show cell cycle populations for MDA-MB-231 cells treated with Bedaquiline (1 and 10 μM) or vehicle alone, after 48, 72 and 120 hours, respectively. Cell cycle analysis was performed using FACS. […] However, at 72 and 120 hours, a decrease in the S-phase population and a concomitant increase in the sub-G0-G1 population can be seen in FIGS. 10B and 10C. Two-way ANOVA, Sidak's multiple comparisons test, ns=not significant, *p<0.01, **p<0.001, ***p<0.0005.
Cell Cycle Analysis by FACS: Cell-cycle analysis was performed on the ATP-high and ATP-low cell sub-populations, by FACS analysis using the Attune NxT Flow Cytometer. Briefly, after trypsinization, the re-suspended cells were incubated with propidium iodide, as per the manufacturer's recommendations (Merck Millipore, Inc.). At least 25,000 events were analyzed per condition. Gated cells were categorized into cell-cycle stages.

[7] = test system: chicken embryos; assay: CAM assay: embryo toxicity; assay type: in vivo; details: all concentrations tested, daily for 8 days
Experimental: (§3) Next, to test in vivo activity, the well-established CAM assay was used with MDA-MB-231 cells, to measure the effect of Bedaquiline effects on tumor growth, spontaneous metastasis and embryo toxicity. FIG. 11A illustrates the timeline for the CAM assay. An inoculum of 1×10^6 MDA-MB-231 cells was added onto the CAM of each egg (day E9) and then eggs were randomized into groups. On day E10, tumors were detectable and they were then treated daily for 8 days with vehicle alone (1% DMSO in PBS) or Bedaquiline. After 8 days of drug administration, on day E18, all tumors were weighed, and the lower CAM was collected to evaluate the number of metastatic cells, as analyzed by qPCR with specific primers for Human Alu sequences. Before each drug administration, treatment tolerability was evaluated by scoring the number of live and dead chicken embryos.
(§4) Tumor Growth, Metastasis and Embryo Toxicity Assays: Xenograft assays were carried out by INOVOTION (Société: 811310127), La Tronche-France. […] For tumor growth assays, at least 14 tumor samples were collected and analysed per group (N≥14). […] Genomic DNA was extracted from the CAM (commercial kit) and analyzed by qPCR with specific primers for Human Alu sequences. […] Before each administration, the treatment tolerability was evaluated by scoring the number of live and dead embryos.

[8] = test system: MDA-MB-231 cells; assay: CAM assay: tumor growth and spontaneous metastasis; assay type: in vivo, chicken; details: daily for 8 days
Experimental: as §3, §4

[9] = test system: MDA-MB-231 cells; assay: Live cell/dead cell analysis by FACS; assay type: cell-based, human; details: 1 and 10 μM
Experimental: FIGS. 10D-10F show the results of live cell/dead cell analysis. MDA-MB-231 cells were treated with Bedaquiline (1 and 10 μM) or vehicle alone, for 48, 72 and 120 hours, and then subjected to live/dead analysis by FACS. […] However, at 72 and 120 hours (FIGS. 10E and 10F), a decrease in the live cell population and an increase in the dead cell population can be seen. […] Two-way ANOVA, Sidak's multiple comparisons test, ns=not significant, *p<0.01, **p<0.001, ***p<0.0005.

[10] = test system: MDA-MB-231 cells; assay: 2D monolayer growth; assay type: cell-based, human; details: 10 μM, time-dependent
Experimental: as §1, §2

[11] = target: ATP5F1C (Homo sapiens, UniProt P36542); details: 0.1, 1 and 10 μM; 24, 48, 72 and 120 hours; relative to vehicle (DMSO)
[12] = test system: PARP; assay: Western blot analysis of PARP protein expression; details: 0.1, 1 and 10 μM, 120 hours

What does the source list for COc1nc2ccc(Br)cc2cc1[C@@H](c1ccccc1)[C@@](O)(CCN(C)C)c1cccc2ccccc12 [Bedaquiline, (1R,2S)-1-(6-bromo-2-methoxyquinolin-3-yl)-4-(dimethylamino)-2-naphthalen-1-yl-1-phenylbutan-2-ol]?
p21 protein expression [1]: decreased in a concentration-dependent manner; inhibition at 10 µM [2]: ~50%; inhibition at 10 µM [3]: 75%; inhibition at 10 µM ([4]; Homo sapiens, MDA-MB-231, 10 μM): ~65%; 2D monolayer growth [5]: No effect was observed; S-phase population ([6]; 1 and 10 μM, 72 and 120 hours): decrease; sub-G0-G1 population ([6]; 1 and 10 μM, 72 and 120 hours): increase; Cell cycle populations ([6]; 1 and 10 μM, 48 hours): No effects were detectable; Increase in the sub-G0-G1 population ([6]; after 120 hours of treatment): 2 fold; Reduction of cells in S-phase ([6]; after 120 hours of treatment): 2 fold; Toxicity for chick embryos (egg survival) [7]: not toxic; Inhibition of spontaneous metastasis ([8]; 120 μM treatment, qPCR Human Alu in lower CAM): 84%; Effect on tumor growth (average tumor weight) ([8]; day E18): no statistically significant effect; Apoptotic cell population (early or late) ([9]; 72 and 120 hours): no increase; Dead cell population ([9]; 72 and 120 hours): increase; Live cell population ([9]; 72 and 120 hours): decrease; Live/dead cell populations ([9]; 48 hours): No effects were detectable; 2D monolayer growth [10]: effectively inhibits 2D growth; ATP5F1C protein expression [11]: down-regulated; PARP protein expression [12]: decreased in a concentration-dependent manner

What does the source list for COc1nc2ccc(CCCCOC(=O)CCCCCCCCCCC[P+](c3ccccc3)(c3ccccc3)c3ccccc3)cc2cc1[C@@H](c1ccccc1)[C@@](O)(CCN(C)C)c1cccc2ccccc12.[Br-] [structure [2B]]?
Mammosphere formation inhibition compared to Bedaquiline (FIG. 12) [4]: more potent than unconjugated Bedaquiline; Mammosphere formation inhibition at the higher concentrations (FIG. 12) [4]: exceptional mammosphere formation inhibition

Which “Mammosphere formation inhibition compared to Bedaquiline (FIG. 12)” value [4] does the source give for COc1nc2ccc(CCCCOC(=O)CCCCC[P+](c3ccccc3)(c3ccccc3)c3ccccc3)cc2cc1[C@@H](c1ccccc1)[C@@](O)(CCN(C)C)c1cccc2ccccc12.[Cl-] [structure [3B], [6-[4-[3-[(1R,2S)-4-(dimethylamino)-2-hydroxy-2-(1-naphthyl)-1-phenyl-butyl]-2-methoxy-6-quinolyl]butoxy]-6-oxo-hexyl]-triphenyl-phosphonium; chloride] here?
Its value is “more potent than unconjugated Bedaquiline”.

And the “Mammosphere formation inhibition at the higher concentrations (FIG. 12)” value [4]?
Its value is “exceptional mammosphere formation inhibition”.
